Values after ≈ are worked out from the molar mass of the structure shown.

Experiment [1] relates to S. aureus strains. Description: MIC against S. aureus strains. Format: cell-based, Staphylococcus aureus. As to the method:
(§1) Compounds were dissolved in dimethyl sulfoxide (DMSO) to achieve a starting concentration of 32 µg/mL as described by us previously. Compounds were further diluted two-fold across the 96-well honeycomb plate columns in cation adjusted Mueller Hinton broth (CAMHB), and bacterial culture was added. Plates were incubated for 18–20 h at 35 ℃ before determining the minimum concentrations at which wells had no visible turbidity to the naked eye. The MIC values were determined from at least a duplicate result obtained from three independent experiments using fresh bacterial cultures on different days.

Experiment [2] concerns enterococci strains. The experiment can be described thus: MIC against enterococci strains. In kind it is cell-based. The conditions noted are these: tested enterococci strains. As to the method: as §1
Experiment [3] relates to S. aureus BAA-2312 (Sa12). Description: MIC, microdilution (CLSI). In kind it is cell-based. The conditions noted are these: Staphylococcus aureus, BAA2312; Sa12, methicillin-resistant S. aureus BAA-2312; n = 3; read-out: MIC. Summed up: (§2)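 The read-out is the lowest concentration leaving wells free of turbidity visible to the naked eye after 18–20 h incubation at 35 ℃. Test compounds, starting at 32 µg/mL, were diluted two-fold in CAMHB before bacterial culture was added.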
For orientation: Dilution methods test growth across graded concentrations, often in twofold steps.

The subject of experiment [4] is S. aureus ATCC 700699 (Sa99). Description: MIC, microdilution (CLSI). In kind it is cell-based. To be noted: Staphylococcus aureus, ATCC700699; Sa99, methicillin-resistant S. aureus ATCC 700699; n = 3; read-out: MIC. Summed up:
as §2

In experiment [5] the test system is S. aureus ATCC 25923 (Sa23). Description: MIC, microdilution (CLSI). In kind it is cell-based. The conditions noted are these: Staphylococcus aureus, ATCC25923; Sa23, antibiotic susceptible S. aureus ATCC 25923; n = 3; read-out: MIC. Summed up: as §2
For experiment [6], the system named is E. faecalis ATCC 29212 (Ef12). The experiment can be described thus: MIC, microdilution (CLSI). Format: cell-based. The conditions noted are these: Enterococcus faecalis, ATCC29212; Ef12, antibiotic susceptible E. faecalis ATCC 29212; n = 3; read-out: MIC. Summed up: as §2
Experiment [7] has as its system S. aureus ATCC 33592 (Sa92). Description: MIC, microdilution (CLSI). In kind it is cell-based. To be noted: Staphylococcus aureus, ATCC33592; Sa92, methicillin-resistant S. aureus ATCC 33592; n = 3; read-out: MIC. In short, it runs like this:
as §2

Experiment [8] concerns S. epidermidis ATCC 700296 (Se). The experiment can be described thus: MIC, microdilution (CLSI). To be noted: Staphylococcus epidermidis, ATCC700296; Se, S. epidermidis ATCC 700296; n = 3; read-out: MIC. In kind it is cell-based. Summed up: as §2
Experiment [9] deals with E. faecalis ATCC 51299 (Ef99). Description: MIC, microdilution (CLSI). In kind it is cell-based. The conditions noted are these: Enterococcus faecalis, ATCC 51299 / VRE; Ef99, vancomycin-resistant (VRE) E. faecalis ATCC 51299; n = 3; read-out: MIC. In short, it runs like this:
as §2

Experiment [10] has as its system E. faecium ATCC 700221 (Ef21). Description: MIC, microdilution (CLSI). In kind it is cell-based. To be noted: Enterococcus faecium, ATCC 700221 / VRE; Ef21, vancomycin-resistant (VRE) E. faecium ATCC 700221; n = 3; read-out: MIC. Summed up:
as §2

The subject of experiment [11] is Bacillus subtilis ATCC 6623 (Bs). Description: MIC, microdilution (CLSI). The conditions noted are these: ATCC6623; Bs, Bacillus subtilis ATCC 6623; n = 3; read-out: MIC. Format: cell-based. In short, it runs like this:
as §2

Experiment [12] concerns S. aureus ATCC 33591 (Sa91). Description: MIC, microdilution (CLSI). In kind it is cell-based. To be noted: Staphylococcus aureus, ATCC33591; Sa91, methicillin-resistant S. aureus ATCC 33591; n = 3; read-out: MIC. In short, it runs like this:
as §2

The test system of experiment [13] is E. faecalis biofilms (Efs12). Description: Biofilm eradication (MBEC), Calgary Biofilm Device. In kind it is cell-based. How it is done: (§3) Minimum biofilm eradication concentration (MBEC) was determined using a Calgary device using the protocol reported elsewhere with some modifications. The Calgary device is a 96-well plate with a lid containing pegs to establish biofilms. Bacteria from an overnight plate culture were suspended to a 0.5 McFarland turbidity, then diluted 1:100 in a CAMHB containing 1% glucose which was inoculated in the 96 wells (150 μL in each well) and incubated at 35 °C for 24 h to establish biofilm on the pegs. The lid was then removed, washed with PBS in a fresh 96 well plate, then transferred to another 96-well plate containing 2-fold serial dilutions of the test compounds dissolved in PBS (150 μL total volume in each well). This plate was called the “challenge plate”. The challenge plate was incubated for an additional 24 h, and the lid was transferred to the next 96-well plate containing fresh CAMHB media with 1% glucose (180 μL) and further incubated for 24 h. […] All the compounds were tested in a minimum of three independent experiments.

In experiment [14] the test system is S. aureus biofilms (Sa23). The experiment can be described thus: Biofilm eradication (MBEC), Calgary Biofilm Device. Format: cell-based, Staphylococcus aureus. As to the method:
as §3

The test system of experiment [15] is S. aureus ATCC 700699 persisters. Description: Persister viability assay. In kind it is cell-based, Staphylococcus aureus. The conditions noted are these: 32× MIC, 4 h, S. aureus ATCC 700699 persisters. How it is done: The persister assay was performed following the methodology described previously. Briefly, for persister viability assays, S. aureus ATCC 700699 strain (MRSA) was grown to stationary phase in CAMHB medium by shaking at 200 rpm in a shaking incubator for 24 h at 35 °C. […] After incubation, 400 µL aliquot was washed, serially diluted in PBS, and plated in blood agar plate for viable colony count.

Experiment [16] deals with MRSA (S. aureus ATCC 700699). The experiment can be described thus: Time Kill Assay. The conditions noted are these: 4× MIC, positive controls. In kind it is cell-based, Staphylococcus aureus.

What is called MIC is the smallest concentration in the dilution series that meets the test's criterion for growth inhibition. Turning to `O=C(O)c1ccc(-n2cc(CNc3ccc(Br)c(Cl)c3)c(-c3cc(C(F)(F)F)cc(C(F)(F)F)c3)n2)cc1` [Compound 21, 4-[3-[3,5-Bis(trifluoromethyl)phenyl]-4-[(4-bromo-3-chloro-anilino)methyl]pyrazol-1-yl] benzoic acid], the MIC in [1] (Staphylococcus aureus, S. aureus strains, including MRSA) was not below 0.5 µg/mL; in experiment [2] it was 1 µg/mL (≈ 1.62 µM); in [3], 1 µg/mL (≈ 1.62 µM); in [4], 2 µg/mL (≈ 3.23 µM); in experiment [5], 1 µg/mL (≈ 1.62 µM); in experiment [6], 1 µg/mL (≈ 1.62 µM). The MIC in [7] came to 0.5 µg/mL (≈ 0.808 µM); in experiment [8] it was 2 µg/mL (≈ 3.23 µM); in experiment [9], 1 µg/mL (≈ 1.62 µM); in experiment [10], 1 µg/mL (≈ 1.62 µM); in experiment [11], 1 µg/mL (≈ 1.62 µM); in experiment [12], 0.5 µg/mL (≈ 0.808 µM). The “times more effective than vancomycin and daptomycin” value in [1] (against S. aureus strains) was “up to 4 times”.
As to `CCCCCCCCCC(=O)N[C@@H](Cc1c[nH]c2ccccc12)C(=O)N[C@H](CC(N)=O)C(=O)N[C@@H](CC(=O)O)C(=O)N[C@@H]1C(=O)NCC(=O)N[C@@H](CCCN)C(=O)N[C@@H](CC(=O)O)C(=O)N[C@H](C)C(=O)N[C@@H](CC(=O)O)C(=O)NCC(=O)N[C@H](CO)C(=O)N[C@@H]([C@H](C)CC(=O)O)C(=O)N[C@@H](CC(=O)c2ccccc2N)C(=O)O[C@@H]1C` [D, Daptomycin, reference compound], the MBEC in experiment [13] and in experiment [14] was more than 32 µg/mL each time. For the same compound, the “activity against persisters” value in experiment [15] is “failed to demonstrate persister kill activity”. Besides, the MIC came to 2 µg/mL (≈ 1.23 µM) in experiment [3]; 8 µg/mL (≈ 4.94 µM) in experiment [4]; 2 µg/mL (≈ 1.23 µM) in experiment [5]; 16 µg/mL (≈ 9.87 µM) in experiment [6]; 2 µg/mL (≈ 1.23 µM) in [7]; 2 µg/mL (≈ 1.23 µM) in experiment [8]. The MIC turned out to be 16 µg/mL (≈ 9.87 µM) in [9], 16 µg/mL (≈ 9.87 µM) in experiment [10], 2 µg/mL (≈ 1.23 µM) in [11] and 2 µg/mL (≈ 1.23 µM) in experiment [12]. Further, in [16], the “time to eliminate >99.9% CFUs” value is reported as 6 h.

For the origin of these results see PMC8398255, “Synthesis of 3,5-Bis(trifluoromethyl)phenyl-Substituted Pyrazole Derivatives as Potent Growth Inhibitors of Drug-Resistant Bacteria” (Molecules, 2021).
